Experimental data as given in patent US7301005B2, “Immunomodulatory peptides derived from heat shock proteins and uses thereof” (priority 2000, dated 2007).
Marks after values point to notes of the source that are not given here.

What was measured:
Assay type in all cases: cell-based, human
[1] = test system: SFMC from patients with oJIA; experiment: Cytokine production in culture supernatants of SFMC incubated with dnaJ and restimulated with autologous feeder cells plus peptide; details: for IFNγ / IL-6 / TNFα / IL-4 / IL-10: mean+SD; for production of IL-10 in patients with extended oligoarthritis: three patients with extended oligoarthritis at sampling; for IL-10 production detectable or not: culture supernatants of SFMC
Description: Results are expressed as pg/ml (mean+SD).
Cytokine production to the same peptides was examined in culture supernatants of SFMC from patients with oJIA. […] SFMC from only one of 21 patients with oJIA produced detectable levels of the anti-inflammatory cytokine IL-10, and none produced detectable levels of IL-4.
(§1) In order to evaluate whether human homologous peptides could be the target of cross-recognition leading to self reactivity, human peptides derived from regions of HSJ1, HDJ1, or HDJ2 having sequence homology with E. coli dnaJ were studied. SFMC of 14 patients with oJIA presenting a SI to the recombinant E. coli hsp dnaJ greater than 3 were restimulated for 96 hr with autologous cells in presence or absence of human peptide 2, 3, or 5, which are homologs of bacterial peptide 4; human peptide 20, 21, or 23, which are homologs of bacterial peptide 22; or human peptide 164, 167, or 176, which are homologs of bacterial peptide 174. SFMC proliferative responses, pro-inflammatory cytokine production, and anti-inflammatory IL-4 levels were overall similar between the peptides derived from human dnaJ proteins and the homologous bacterial peptides.
Results are expressed as SI or pg/ml (mean+SD).

[2] = test system: SFMC from patients with oJIA; experiment: Proliferative response of SFMC incubated with dnaJ and restimulated with autologous feeder cells plus peptide; details: for SI: Table 3, dnaJ 72 hr then restimulated with peptide, mean+SD
Procedure: Results, expressed as stimulation index (SI), are shown as mean+SD.
In order to identify possible relevant epitopes on the bacterial dnaJ protein, PBMC and SFMC of patients with oJIA were incubated for 72 hr with dnaJ, and restimulated with autologous feeder cells the in presence or absence of selected E. coli derived MHC class II binder peptides for 96 hr.
as §1
Results are expressed as SI or pg/ml (mean+SD). […]
To explore the possible correlation of clinical features with the development of peptide-induced immune modulation, oJIA patients were grouped according to the course of disease, including those with persistent disease (n=16), and those with extended disease (n=15) o-JIA. (FIG. 25).

[3] = test system: peripheral blood mononuclear cells (PBMC); experiment: Proliferative response (stimulation index) of PBMC stimulated with antigen for 96 hr; details: PBMC
[4] = test system: synovial fluid mononuclear cells (SFMC) from patients with oJIA; experiment: Proliferative response (stimulation index) of SFMC stimulated with antigen for 96 hr; details: SFMC
[5] = Table 3, dnaJ 72 hr then restimulated with peptide
[6] = Table 1, dnaJ 72 hr then restimulated with peptide 72 hr

ASYYEILDVPRSASA (listed as Homo sapiens) [Peptide 2, human HSJ1 peptide, homologue of bacterial dnaJ peptide 4]
IFNγ [1, 5]: 51.3 + 72.4 pg/ml
IL-6 [1, 5]: 41.7 + 43.8 pg/ml
TNFα [1, 5]: 23.2 + 26.8 pg/ml
SI [2]: 5.9 + 5.7

DLQLAMAYSLSEMEA (listed as Homo sapiens) [Peptide 254, non-homologous human peptide (HSJ1)]
production of IL-10 in patients with extended oligoarthritis [1]: reduced production of IL-10

EDLFMCMDIQLVEAL (listed as Homo sapiens) [Peptide 256, non-homologous human peptide (HDJ2)]
production of IL-10 in patients with extended oligoarthritis [1]: reduced production of IL-10

FRSVSTSTTFVQGRR (listed as Homo sapiens) [Peptide 164, human HSJ1 peptide, homologue of bacterial dnaJ peptide 174]
IFNγ [1, 5]: 52.5 + 85.2 pg/ml
IL-6 [1, 5]: 27.3 + 31.3 pg/ml
TNFα [1, 5]: 13.5 + 18.9 pg/ml
SI [2]: 4.2 + 4.0

GDLYVQVQVKQHPIF (listed as Escherichia coli) [Peptide 242, bacterial (E. coli) dnaJ peptide]
IFNγ [1, 6]: 41.2 ± 48.8 pg/mL
IL-4 [1, 6]: <0.39 pg/mL
IL-6 [1, 6]: 34.1 ± 41.7 pg/mL
IL-10 [1, 6]: 5.3 ± 6.6 pg/mL
TNFα [1, 6]: 14.2 ± 29.2 pg/mL

GRRITTRRIMENGQE (listed as Homo sapiens) [Peptide 176, human HSJ1 peptide, homologue of bacterial dnaJ peptide 174]
IFNγ [1, 5]: 45.6 + 68.3 pg/ml
IL-6 [1, 5]: 21.2 + 25.2 pg/ml
TNFα [1, 5]: 8.9 + 10.3 pg/ml
SI [2]: 4.3 + 2.7

KDYYQTLGLARGASD (listed as Homo sapiens) [Peptide 3, human HDJ1 peptide, homologue of bacterial dnaJ peptide 4]
IFNγ [1, 5]: 57.5 + 85.7 pg/ml
IL-6 [1, 5]: 114.0 + 126 pg/ml
TNFα [1, 5]: 10.3 + 9.9 pg/ml
SI [2]: 8.0 + 7.5

KKAYRKLALKYHPDK (listed as Homo sapiens) [Peptide 23, human HDJ2 peptide, homologue of bacterial dnaJ peptide 22]
IFNγ [1, 5]: 38.2 + 75 pg/ml
IL-6 [1, 5]: 33.3 + 32.7 pg/ml
TNFα [1, 5]: 7.7 + 7.6 pg/ml
IL-10 production detectable or not [1]: did not induce detectable levels of IL-10
SI [2]: 4.7 + 4.0

KKAYRRKALQWHPDK (listed as Homo sapiens) [Peptide 20, human HSJ1 peptide, homologue of bacterial dnaJ peptide 22]
IFNγ [1, 5]: 25.3 + 47.4 pg/ml
IL-6 [1, 5]: 33.0 + 34.0 pg/ml
TNFα [1, 5]: 11.8 + 11.2 pg/ml
IL-10 production detectable or not [1]: did not induce detectable levels of IL-10
SI [2]: 4.7 + 4.7

KRAYRRQALRYHPDK (listed as Homo sapiens) [Peptide 21, human HDJ1 peptide, homologue of bacterial dnaJ peptide 22]
IFNγ [1, 5]: 30.8 + 56.4 pg/ml
IL-6 [1, 5]: 33.5 + 43.8 pg/ml
TNFα [1, 5]: 26.6 + 39.3 pg/ml
IL-10 production detectable or not [1]: did not induce detectable levels of IL-10
SI [2]: 4.6 + 4.2

PGMVQQIQSVCMECQ (listed as Homo sapiens) [Peptide 167, human HDJ2 peptide, homologue of bacterial dnaJ peptide 174]
IFNγ [1, 5]: 38.3 + 61.2 pg/ml
IL-6 [1, 5]: 23.0 + 22.3 pg/ml
TNFα [1, 5]: 7.3 + 7.3 pg/ml
SI [2]: 3.9 + 3.1

PINFAMAALGGEIEV (listed as Escherichia coli) [Peptide 268, bacterial (E. coli) dnaJ peptide]
IFNγ [1, 6]: 34.7 ± 51.2 pg/mL
IL-4 [1, 6]: <0.39 pg/mL
IL-6 [1, 6]: 45 ± 58.4 pg/mL
IL-10 [1, 6]: <3.9 pg/mL
TNFα [1, 6]: 17.2 ± 30.1 pg/mL

QAYEVLSDAKKRELYD (listed as Homo sapiens) [Peptide 50, non-homologous human peptide (HDJ2)]
production of IL-10 in patients with extended oligoarthritis [1]: reduced production of IL-10

QDYYEILGVSKTAEE (listed as Escherichia coli) [Peptide 4, bacterial (E. coli) dnaJ peptide]
IFNγ [1, 6]: 38.5 ± 47.7 pg/mL
IL-4 [1, 6]: <0.39 pg/mL
IL-6 [1, 6]: 49.8 ± 54.0 pg/mL
IL-10 [1, 6]: 5.4 ± 6.9 pg/mL
TNFα [1, 6]: 9.8 ± 21.2 pg/mL
IFNγ [1, 5]: 30.8 + 52.4 pg/ml
IL-6 [1, 5]: 60.2 + 60.3 pg/ml
TNFα [1, 5]: 6.0 + 4.5 pg/ml
SI [2]: 4.1 + 3.33

QGFFAVQQTCPHCQG (listed as Escherichia coli) [Peptide 174, bacterial (E. coli) dnaJ peptide]
IFNγ [1, 6]: 29.8 ± 44.6 pg/mL
IL-4 [1, 6]: <0.39 pg/mL
IL-6 [1, 6]: 47.3 ± 61.2 pg/mL
IL-10 [1, 6]: 4.2 ± 1.9 pg/mL
TNFα [1, 6]: 16.1 ± 31.5 pg/mL
IFNγ [1, 5]: 31.4 + 53.1 pg/ml
IL-6 [1, 5]: 56.4 + 70 pg/ml
TNFα [1, 5]: 16.1 + 30.9 pg/ml
SI [2]: 5.9 + 7.5

QKRAAYDQYGHAAFEQ (listed as Escherichia coli) [Peptide 61, bacterial (E. coli) dnaJ peptide]
IFNγ [1, 6]: 31 ± 45.7 pg/mL
IL-4 [1, 6]: <0.39 pg/mL
IL-6 [1, 6]: 47.6 ± 70.5 pg/mL
IL-10 [1, 6]: <3.9 pg/mL
TNFα [1, 6]: 22.6 ± 35.3 pg/mL

RKAYKRLAMKYHPDR (listed as Escherichia coli) [Peptide 22, bacterial (E. coli) dnaJ peptide]
IFNγ [1, 6]: 27 ± 38.0 pg/mL
IL-4 [1, 6]: <0.39 pg/mL
IL-6 [1, 6]: 45.7 ± 57.7 pg/mL
IL-10 [1, 6]: 4.4 ± 2.7 pg/mL
TNFα [1, 6]: 14.1 ± 26.8 pg/mL
IFNγ [1, 5]: 20.1 + 33.5 pg/ml
IL-6 [1, 5]: 54.3 + 69.0 pg/ml
TNFα [1, 5]: 10.5 + 23.1 pg/ml
IL-10 production detectable or not [1]: did not induce detectable levels of IL-10
SI [2]: 4.7 + 4.0

RTIVITSHPGQIVKH (listed as Homo sapiens) [Peptide 283, non-homologous human peptide (HDJ2)]
production of IL-10 in patients with extended oligoarthritis [1]: reduced production of IL-10

SKTLSVKIPGAVDTG (listed as Escherichia coli) [Peptide 209, bacterial (E. coli) dnaJ peptide]
IFNγ [1, 6]: 41.3 ± 46.9 pg/mL
IL-4 [1, 6]: <0.39 pg/mL
IL-6 [1, 6]: 56.6 ± 65.9 pg/mL
IL-10 [1, 6]: 6.2 ± 5.8 pg/mL
TNFα [1, 6]: 15.3 ± 29.2 pg/mL

TTYYDVLGVKPNATQ (listed as Homo sapiens) [Peptide 5, human HDJ2 peptide, homologue of bacterial dnaJ peptide 4]
IFNγ [1, 5]: 69.5 + 105.2@ pg/ml
IL-6 [1, 5]: 60.0 + 67.2 pg/ml
TNFα [1, 5]: 18.9 + 16.9 pg/ml
IFNγ production compared with bacterial homolog ([1]; p<0.05): significantly greater
SI [2]: 8.2 + 7.3*
proliferative response compared with bacterial homolog ([2]; p<0.03): significantly greater

YCEVPTNFAMAALGG [Peptide 264]
IFNγ [1, 6]: 44.9 ± 55.8 pg/mL
IL-4 [1, 6]: <0.39 pg/mL
IL-6 [1, 6]: 47.4 ± 61.2 pg/mL
IL-10 [1, 6]: <3.9 pg/mL
TNFα [1, 6]: 14.0 ± 29.3 pg/mL

tetanus toxoid [TT, reference compound]
median SI [3]: 12.3
median SI [4]: 6.0
